From US20250250231A1, “NOVEL SUBSTITUTED 4-AMINO-4-OXO-BUT-2-ENYL DERIVATIVES, PROCESSES FOR THEIR PREPARATION AND THERAPEUTIC USES THEREOF” (SANOFI, priority 2022, published 2025)
Read-outs that look alike come from different tables or passages of the source.

Key:
Assay type in all cases: cell-based
[1] = test system: MCF7-WT cells; assay: In vitro anti-proliferation assay (CellTiter-Glo viability), MCF7-WT cells; details: MCF7-WT cells supplemented with 0.1 nM b-estradiol, viability on day 8, relative IC50
Method: (§1) Test: In vitro anti-proliferation assay
(§2) Said test involves measuring the in vitro anti-proliferation activity of the compounds of the Table 1a.
(§3) The measurements of the anti-proliferation activities were made using MCF7-WT (ATCC), MCF7-Y537S and HCC1428-LTED cells as described hereunder.
(§4) On Day 1, MCF7-WT and MCF7-Y537S (Mol Cancer Ther. 2021 20(2):250-262), and HCC1428-LTED (J Clin Invest. 2010; 120(7):2406-2413) cells, were seeded at 2000 (WT and LTED) and 500 (Y537S) cells/well in phenol red free IMEM (Corning, 110-026-CV) with 5% Charcoal stripped-FBS and incubated overnight 37° C. and 5% CO2.
(§5) On day 2, compounds were tested in triplicate in 10-point dose response (1:3 serial dilutions with a top concentration starting 300 nM); DMSO for upper limit (negative control) and staurosporine (1 uM) for lower limit (positive control) were also included. MCF7-WT cells were then supplemented with final 0.1 nM b-estradiol. After treating the cells, the assay plates were transferred back in the incubator at 37° C. and 5% CO2.
(§6) On day 8, cell viability was measured per vendor recommendations (CellTiter-Glo, Promega). Relative IC50 measurements were calculated as follow using a 4-parameter logistic derived from Levenburg Marquardt algorithm (IDBS XL Model 205 fit within A-base).

[2] = test system: MCF7-Y537S cells; assay: In vitro anti-proliferation assay (CellTiter-Glo viability), MCF7-Y537S cells; details: viability on day 8, relative IC50
Method: as §1, §2, §3, §4, §5, §6

[3] = test system: HCC1428-LTED cells; assay: In vitro anti-proliferation assay (CellTiter-Glo viability), HCC1428-LTED cells; details: viability on day 8, relative IC50, read-out: HCC 1428 IC50
Method: as §1, §2, §3, §4, §5, §6

Row | Compound | IC50 ([1]; Homo sapiens, MCF7, 192 h) [nM] | IC50 ([2]; Homo sapiens, MCF7, 192 h) [nM] | IC50 ([3]; Homo sapiens, HCC1428, 192 h) [nM] | IC50 [1] [nM] | IC50 [2] [nM] | IC50 [3] [nM]
1 | Cc1ccc(C2=C(c3ccc(O[C@H]4CCN(C/C=C/C(=O)N(C)C)C4)cc3)c3ccc(C(=O)O)cc3CCC2)c(F)c1 [Compound 5, (S,E)-9-(4-((1-(4-(dimethylamino)-4-oxobut-2-en-1-yl)pyrrolidin-3-yl)oxy)phenyl)-8-(2-fluoro-4-methylphenyl)-6,7-dihydro-5H-benzo[7]annulene-3-carboxylic acid] | 3 | 76 | 0.2 |  |  | 
2 | CN(C)C(=O)/C=C/CN1CC[C@H](Oc2ccc(C3=C(c4ccccc4Cl)CCCc4cc(C(=O)O)ccc43)cc2)C1 [Compound 9, (S,E)-8-(2-chlorophenyl)-9-(4-((1-(4-(dimethylamino)-4-oxobut-2-en-1-yl)pyrrolidin-3-yl)oxy)phenyl)-6,7-dihydro-5H-benzo[7]annulene-3-carboxylic acid] | 4 | 87 | 0.2 |  |  | 
3 | Cc1ccc(C2=C(c3ccc(O[C@H]4CCN(C/C=C/C(=O)N(C)C)C4)cc3)c3ccc(C(=O)O)cc3CCC2)c(C)c1 [Compound 8, (S,E)-9-(4-((1-(4-(dimethylamino)-4-oxobut-2-en-1-yl)pyrrolidin-3-yl)oxy)phenyl)-8-(2,4-dimethylphenyl)-6,7-dihydro-5H-benzo[7]annulene-3-carboxylic acid] | 3 | 87 | 0.2 |  |  | 
4 | Cc1ccc(C2=C(c3ccc(O[C@H]4CCN(C/C=C/C(=O)N(C)C)C4)cc3)c3ccc(C(=O)O)cc3CCC2)cc1Cl [Compound 7, (S,E)-8-(3-chloro-4-methylphenyl)-9-(4-((1-(4-(dimethylamino)-4-oxobut-2-en-1-yl)pyrrolidin-3-yl)oxy)phenyl)-6,7-dihydro-5H-benzo[7]annulene-3-carboxylic acid] | 28 | ≥ 500 | 2 |  |  | 
5 | CN(C)C(=O)/C=C/CN1CC[C@H](Oc2ccc(C3=C(c4ccc(Cl)cc4Cl)CCCc4cc(C(=O)O)ccc43)cc2)C1 [Compound 1, (S,E)-8-(2,4-dichlorophenyl)-9-(4-((1-(4-(dimethylamino)-4-oxobut-2-en-1-yl)pyrrolidin-3-yl)oxy)phenyl)-6,7-dihydro-5H-benzo[7]annulene-3-carboxylic acid] | 14 | ≥ 500 | 0.7 |  |  | 
6 | CN(C)C(=O)/C=C/CN1CC[C@H](Oc2ccc(C3=C(c4ccc(F)cc4Cl)CCCc4cc(C(=O)O)ccc43)cc2)C1 [Compound 2, (S,E)-8-(2-chloro-4-fluorophenyl)-9-(4-((1-(4-(dimethylamino)-4-oxobut-2-en-1-yl)pyrrolidin-3-yl)oxy)phenyl)-6,7-dihydro-5H-benzo[7]annulene-3-carboxylic acid] | 10 | ≥ 500 | 0.4 |  |  | 
7 | CN(C)C(=O)/C=C/CN1CC[C@H](Oc2ccc(C3=C(c4ccc(Cl)cc4Cl)CCCc4ccccc43)cc2)C1 [Compound 26, (S,E)-4-(3-(4-(8-(2,4-dichlorophenyl)-6,7-dihydro-5H-benzo[7]annulen-9-yl)phenoxy)pyrrolidin-1-yl)-N,N-dimethylbut-2-enamide] | 21 | 193 | 0.4 |  |  | 
8 | CN(C)C(=O)/C=C/CN1CC(=Cc2ccc(C3=C(c4ccc(Cl)cc4Cl)CCCc4cc(C(=O)O)ccc43)cc2)C1 [Compound 14, (E)-8-(2,4-dichlorophenyl)-9-(4-((1-(4-(dimethylamino)-4-oxobut-2-en-1-yl)azetidin-3-ylidene)methyl)phenyl)-6,7-dihydro-5H-benzo[7]annulene-3-carboxylic acid] | 101 | 0.4 | 0.4 |  |  | 
9 | CN(C)C(=O)/C=C/CN1CC[C@H](Oc2ccc(C3=C(c4ccc(Cl)cc4Cl)CCCc4cc(O)ccc43)cc2)C1 [Compound 23, (S,E)-4-(3-(4-(8-(2,4-dichlorophenyl)-3-hydroxy-6,7-dihydro-5H-benzo[7]annulen-9-yl)phenoxy)pyrrolidin-1-yl)-N,N-dimethylbut-2-enamide] | 26 | 23 | 0.03 |  |  | 
10 | CN(C)C(=O)/C=C/CN1CC[C@H](Oc2ccc(C3=C(c4ccc(Cl)cc4F)CCCc4cc(C(=O)O)ccc43)cc2)C1 [Compound 3, (S,E)-8-(4-chloro-2-fluorophenyl)-9-(4-((1-(4-(dimethylamino)-4-oxobut-2-en-1-yl)pyrrolidin-3-yl)oxy)phenyl)-6,7-dihydro-5H-benzo[7]annulene-3-carboxylic acid] | 24 | 167 | 0.7 |  |  | 
11 | CN(C)C(=O)/C=C/CN1CC[C@H](Oc2ccc(C3=C(c4ccc(Cl)cc4Cl)CCSc4cc(O)ccc43)cc2)C1 [Compound 27, (S,E)-4-(3-(4-(4-(2,4-dichlorophenyl)-8-hydroxy-2,3-dihydrobenzo[b]thiepin-5-yl)phenoxy)pyrrolidin-1-yl)-N,N-dimethylbut-2-enamide] | 2.9 | 33 | 0.02 |  |  | 
12 | CN(C)C(=O)/C=C/CN1CCC(Cc2ccc(C3=C(c4ccc(Cl)cc4Cl)CCCc4cc(C(=O)O)ccc43)cc2)C1 (single isomer, unassigned; isomer 2) [Compound 19, (E)-8-(2,4-dichlorophenyl)-9-(4-((1-(4-(dimethylamino)-4-oxobut-2-en-1-yl)pyrrolidin-3-yl)methyl)phenyl)-6,7-dihydro-5H-benzo[7]annulene-3-carboxylic acid, Isomer 2] |  |  |  | 9 | 20.7 | 0.2
13 | CN(C)C(=O)/C=C/CN1CC(Nc2ccc(C3=C(c4ccc(Cl)cc4Cl)CCCc4cc(C(=O)O)ccc43)cc2)C1 [Compound 21, (E)-8-(2,4-dichlorophenyl)-9-(4-((1-(4-(dimethylamino)-4-oxobut-2-en-1-yl)azetidin-3-yl)amino)phenyl)-6,7-dihydro-5H-benzo[7]annulene-3-carboxylic acid] | 28 | ≥ 500 | 2.1 |  |  | 
14 | CN(C)C(=O)/C=C/CN1CC[C@H](Oc2ccc(C3=C(c4ccc(Cl)cc4Cl)CCOc4cc(C(=O)O)ccc43)cc2)C1 [Compound 24, (S,E)-4-(2,4-dichlorophenyl)-5-(4-((1-(4-(dimethylamino)-4-oxobut-2-en-1-yl)pyrrolidin-3-yl)oxy)phenyl)-2,3-dihydrobenzo[b]oxepine-8-carboxylic acid] | 160 | ≥ 500 | 4.4 |  |  | 
15 | CN(C)C(=O)/C=C/CN1CCC(Cc2ccc(C3=C(c4ccc(Cl)cc4Cl)CCCc4cc(C(=O)O)ccc43)cc2)C1 (single isomer, unassigned; isomer 1) [Compound 18, (E)-8-(2,4-dichlorophenyl)-9-(4-((1-(4-(dimethylamino)-4-oxobut-2-en-1-yl)pyrrolidin-3-yl)methyl)phenyl)-6,7-dihydro-5H-benzo[7]annulene-3-carboxylic acid, Isomer 1] |  |  | 0.3 | 26 | 59 | 
16 | Cc1ccc(C2=C(c3ccc(O[C@H]4CCN(C/C=C/C(=O)N(C)C)C4)cc3)c3ccc(C(=O)O)cc3CCC2)c(Cl)c1 [Compound 11, (S,E)-8-(2-chloro-4-methylphenyl)-9-(4-((1-(4-(dimethylamino)-4-oxobut-2-en-1-yl)pyrrolidin-3-yl)oxy)phenyl)-6,7-dihydro-5H-benzo[7]annulene-3-carboxylic acid] | 2 | 204 | 0.1 |  |  | 
17 | CN(C)C(=O)/C=C/CN1CC[C@H](Oc2ccc(C3=C(c4ccc(Cl)cc4Cl)CCc4cc(C(=O)O)ccc43)cc2)C1 [Compound 25, (S,E)-6-(2,4-dichlorophenyl)-5-(4-((1-(4-(dimethylamino)-4-oxobut-2-en-1-yl)pyrrolidin-3-yl)oxy)phenyl)-7,8-dihydronaphthalene-2-carboxylic acid] | 300 | ≥ 500 | 17 |  |  | 
18 | CN(C)C(=O)/C=C/CN1CC(Oc2ccc(C3=C(c4ccc(Cl)cc4Cl)CCCc4cc(C(=O)O)ccc43)cc2)C1 [Compound 12, (E)-8-(2,4-dichlorophenyl)-9-(4-((1-(4-(dimethylamino)-4-oxobut-2-en-1-yl)azetidin-3-yl)oxy)phenyl)-6,7-dihydro-5H-benzo[7]annulene-3-carboxylic acid] | 126 | ≥ 500 | 3 |  |  | 
19 | CN(C)C(=O)/C=C/CN1CC/C(=C/c2ccc(C3=C(c4ccc(Cl)cc4Cl)CCCc4cc(C(=O)O)ccc43)cc2)C1 [Compound 20, 8-(2,4-dichlorophenyl)-9-(4-((Z)-(1-((E)-4-(dimethylamino)-4-oxobut-2-en-1-yl)pyrrolidin-3-ylidene)methyl)phenyl)-6,7-dihydro-5H-benzo[7]annulene-3-carboxylic acid] | 41 | ≥ 500 | 1 |  |  | 
